The source of these data is patent US9655887B2, “Pharmaceutical composition and the use thereof, and application regime of said pharmaceutical composition for on-demand contraception” (BAYER PHARMA AKTIENGESELLSCHAFT, priority 2013, dated 2017).

One assay addresses T1, human PGD receptor (hDP) (Homo sapiens, UniProt Q13258).
T1 sequence (Q13258 1-359): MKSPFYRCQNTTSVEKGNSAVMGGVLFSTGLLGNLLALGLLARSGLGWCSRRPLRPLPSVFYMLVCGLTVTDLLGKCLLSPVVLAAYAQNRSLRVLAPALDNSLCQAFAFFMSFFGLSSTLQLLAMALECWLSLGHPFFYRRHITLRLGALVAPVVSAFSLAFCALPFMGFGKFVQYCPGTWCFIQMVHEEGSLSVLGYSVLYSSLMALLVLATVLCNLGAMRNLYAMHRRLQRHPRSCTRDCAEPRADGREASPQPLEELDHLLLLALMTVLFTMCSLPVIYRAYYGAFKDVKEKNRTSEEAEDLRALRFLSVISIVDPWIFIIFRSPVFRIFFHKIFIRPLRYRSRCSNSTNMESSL
The assay can be described thus: cAMP antagonism test, human prostaglandin D receptor signal. It is filed as cell-based. The conditions noted are these: selectivity towards hDP, IC50 measured by cAMP antagonism test. From the text:
3. Detection of Antagonism to the Human Prostaglandin D Receptor Signal
The binding of prostaglandin D2 to the human PGD receptor induces the activation of membrane-located adenylate cyclases and leads to the formation of cAMP. In the presence of the phosphodiesterase inhibitor IBMX, the cAMP accumulated owing to this stimulation and released by cell lysis is used in a competitive detection method. In this test, the cAMP present in the lysate competes with a fluorescence-labelled cAMP (cAMP-d2) for binding to an Eu cryptate-labelled anti-cAMP antibody.
(§1) In the absence of cellular cAMP, a maximal signal is produced, which is attributable to the binding of this cAMP-d2 molecule to the antibody. After excitation of the […] at 337 nm, there is a fluorescence resonance energy transfer (FRET) to the Eu cryptate molecules of the anti-cAMP antibody (labelled therewith), followed by a long-lasting emission signal at 665 nm (and at […]). Both signals are measured in a suitable measurement instrument with a time delay, i.e. after decay of the background fluorescence. Any increase in the low FRET signal caused by prostaglandin E2 administration (measured as well ratio change=emission665nm/emission620nm*10000) indicates the action of antagonists.
3.2.1. Test for Antagonism (Data Per Well of a 384-Well Plate):
To a test plate with the substance solutions already added (0.05 μl; 100% DMSO, concentration range from 0.8 nM-16.5 nM) were added 4 μl of a cAMP-d2/cell suspension (625000 cells/ml). After a 20-minute preincubation at room temperature (RT), 2 μl of a 3×PGD2 solution (6 nM, in PBS-IBMX) were added and incubated in the presence of the agonist for a further 30 mins at RT (volume: ˜6 μl). Next the reaction was stopped by addition of 2 μl of lysis buffer and incubated for a further 20 mins at RT before the actual measurement (volume: ˜8 μl).

Assay [1] deals with EP4 subtype of the human PGE2 receptor (hEP4) (Homo sapiens, UniProt P35408). The assay is described as follows: cAMP antagonism test, human prostaglandin E2 (subtype EP4) receptor signal. It is filed as cell-based. The conditions noted are these: selectivity towards hEP4, IC50 measured by cAMP antagonism test.
Excerpt: 2. Detection of Antagonism to the Human Prostaglandin E2 (Subtype EP4) Receptor Signal
The binding of PGE2 to the EP4 subtype of the human PGE2 receptor induces the activation of membrane-located adenylate cyclases and leads to the formation of cAMP. In the presence of the phosphodiesterase inhibitor IBMX, the cAMP accumulated owing to this stimulation and released by cell lysis is used in a competitive detection method. In this test, the cAMP present in the lysate competes with a fluorescence-labelled cAMP (cAMP-d2) for binding to an Eu cryptate-labelled anti-cAMP antibody.
as §1, with “cAMP” for “cAMP,”
2.2.1. Test for Antagonism (Data Per Well of a 384-Well Plate):
To a test plate with the substance solutions already added (0.05 μl; 100% DMSO, concentration range from 0.8 nM-16.5 uM) were added 4 μl of a cAMP-d2/cell suspension (312500 cells/ml). After a 20-minute preincubation at room temperature (RT), 2 μl of a 3×PGE2 solution (0.3 nM, in PBS-IBMX) were added and incubated in the presence of the agonist for a further 60 mins at RT (volume: ˜6 μl). Next the reaction was stopped by addition of 2 μl of lysis buffer and incubated for a further 20 mins at RT before the actual measurement (volume: ˜8 μl).

The next assay concerns ovulation. The conditions noted are these: cited from earlier work.

EP4 subtype of the human PGE2 receptor (hEP4), sequence (P35408 whole entry): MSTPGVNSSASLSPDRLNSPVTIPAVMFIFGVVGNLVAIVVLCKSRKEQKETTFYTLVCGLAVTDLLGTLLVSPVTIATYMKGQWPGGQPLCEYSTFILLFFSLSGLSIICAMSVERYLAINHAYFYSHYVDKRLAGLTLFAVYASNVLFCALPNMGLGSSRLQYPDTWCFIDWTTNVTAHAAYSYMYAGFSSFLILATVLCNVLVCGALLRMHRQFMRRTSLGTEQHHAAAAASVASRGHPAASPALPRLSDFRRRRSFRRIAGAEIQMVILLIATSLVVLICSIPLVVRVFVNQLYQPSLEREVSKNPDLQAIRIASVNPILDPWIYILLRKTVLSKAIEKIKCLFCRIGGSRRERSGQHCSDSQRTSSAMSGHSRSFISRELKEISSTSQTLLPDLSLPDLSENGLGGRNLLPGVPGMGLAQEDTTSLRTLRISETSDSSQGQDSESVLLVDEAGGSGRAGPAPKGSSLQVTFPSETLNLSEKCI

Regarding `COC(C)CNC(=O)c1ccc2nn(CC3CN(C(=O)c4ccc(Cl)cc4)C3)cc2c1C` (single isomer, unassigned) [Example 140, (S or R)-2-{[1-(4-chlorobenzoyl)azetidin-3-yl]methyl}-N-(2-methoxypropyl)-4-methyl-2H-indazole-5-carboxamide], the “Selectivity hEP2/hDP” value at human PGD receptor (hDP) is on record as “xxx (xxx >100)”. Also, in assay [1], the “Selectivity hEP2/hEP4” value is listed as “xxx (xxx >100)”.
For the molecule `Cc1c(C(=O)NCC2COCCO2)ccc2nn(CC3CN(C(=O)c4ccc(Cl)cc4)C3)cc12` (single isomer, unassigned) [Example 143, (S or R)-2-{[1-(4-chlorobenzoyl)azetidin-3-yl]methyl}-N-(1,4-dioxan-2-yl-methyl)-4-methyl-2H-indazole-5-carboxamide], at human PGD receptor (hDP), the “Selectivity hEP2/hDP” value was “xxx (xxx >100)”. The “Selectivity hEP2/hEP4” value in assay [1] is “xxx (xxx >100)”.
In the case of `Cc1c(C(=O)NCC2CCCCO2)ccc2nn(CC3CN(C(=O)c4ccc(Cl)cc4)C3)cc12` (single isomer, unassigned) [Example 145, (R or S)-2-{[1-(4-chlorobenzoyl)azetidin-3-yl]methyl}-4-methyl-N-(3,4,5,6-tetrahydro-2H-pyran-2-ylmethyl)-2H-indazole-5-carboxamide], the “Selectivity hEP2/hDP” value on human PGD receptor (hDP) is recorded as “xxx (xxx >100)”. Also, the “Selectivity hEP2/hEP4” value in assay [1] is “xxx (xxx >100)”.
As for `Cc1c(C(=O)NCC2CCCCO2)ccc2nn(CC3CN(C(=O)c4ccc(Cl)cc4)C3)cc12` (single isomer, unassigned) [Example 146, (S or R)-2-{[1-(4-chlorobenzoyl)azetidin-3-yl]methyl}-4-methyl-N-(3,4,5,6-tetrahydro-2H-pyran-2-ylmethyl)-2H-indazole-5-carboxamide], the “Selectivity hEP2/hDP” value at human PGD receptor (hDP) is reported as “xxx (xxx >100)”. In addition, the “Selectivity hEP2/hEP4” value in assay [1] is “xxx (xxx >100)”.
For `Cc1c(C(=O)NCC(C)OC2CCC2)ccc2nn(CC3CN(C(=O)c4ccc(Cl)cc4)C3)cc12` (single isomer, unassigned) [Example 155, (S or R)-2-{[1-(4-chlorobenzoyl)azetidin-3-yl]methyl}-N-[2-(cyclobutyloxy)-propyl]-4-methyl-2H-indazole-5-carboxamide], the “Selectivity hEP2/hDP” value at human PGD receptor (hDP) is “xxx (xxx >100)”. In addition, the “Selectivity hEP2/hEP4” value in assay [1] was “xxx (xxx >100)”.
Turning to `Cc1c(C(=O)NCC2CCCCO2)ccc2nn(CC3CCN(C(=O)c4ccc(Cl)cc4)CC3)cc12` (single isomer, unassigned) [Example 240, (R or S)-2-{[1-(4-chlorobenzoyl)piperidin-4-yl]methyl}-4-methyl-N-(3,4,5,6-tetrahydro-2H-pyran-2-ylmethyl)-2H-indazole-5-carboxamide], the “Selectivity hEP2/hDP” value at human PGD receptor (hDP) was “xxx (xxx >100)”. Moreover, the “Selectivity hEP2/hEP4” value in assay [1] is listed as “xxx (xxx >100)”.
As to `Cc1c(C(=O)NCC2CCCCO2)ccc2nn(CC3CCN(C(=O)c4ccc(Cl)cc4)CC3)cc12` (single isomer, unassigned) [Example 241, (S or R)-2-{[1-(4-chlorobenzoyl)piperidin-4-yl]methyl}-4-methyl-N-(3,4,5,6-tetrahydro-2H-pyran-2-ylmethyl)-2H-indazole-5-carboxamide], on human PGD receptor (hDP), the “Selectivity hEP2/hDP” value is “xxx (xxx >100)”. In addition, the “Selectivity hEP2/hEP4” value in assay [1] is “xxx (xxx >100)”.
As to `Cc1c(C(=O)NCC2COCCO2)ccc2nn(CC3CCN(C(=O)c4ccc(Cl)cc4)CC3)cc12` (single isomer, unassigned) [Example 415, (S or R)-2-{[1-(4-chlorobenzoyl)piperidin-4-yl]methyl}-N-(1,4-dioxan-2-yl-methyl)-4-methyl-2H-indazole-5-carboxamide], the “Selectivity hEP2/hDP” value on human PGD receptor (hDP) is recorded as “xxx (xxx >100)”. For the same molecule, the “Selectivity hEP2/hEP4” value in assay [1] is given as “xxx (xxx >100)”.
On to `Cc1c(C(=O)NCC2CCCCO2)ccc2nn(CC3CCN(C(=O)c4ccc(Oc5ccc(C(F)(F)F)cc5)cc4)CC3)cc12` (single isomer, unassigned) [Example 416, (R or S)-4-methyl-N-(3,4,5,6-tetrahydro-2H-pyran-2-ylmethyl)-2-[(1-{4-[4-(trifluoromethyl)phenoxy]benzoyl}piperidin-4-yl)methyl]-2H-indazole-5-carboxamide], for which the “Selectivity hEP2/hDP” value on human PGD receptor (hDP) is given as “xxx (xxx >100)”. Further, in assay [1], the “Selectivity hEP2/hEP4” value was “xxx (xxx >100)”.
As for `Cc1c(C(=O)NCC2CCCCO2)ccc2nn(CC3CCN(C(=O)c4ccc(Oc5ccc(C(F)(F)F)cc5)cc4)CC3)cc12` (single isomer, unassigned) [Example 417, (S or R)-4-methyl-N-(3,4,5,6-tetrahydro-2H-pyran-2-ylmethyl)-2-[(1-{4-[4-(trifluoromethyl)phenoxy]benzoyl}piperidin-4-yl)methyl]-2H-indazole-5-carboxamide], at human PGD receptor (hDP), the “Selectivity hEP2/hDP” value is listed as “xxx (xxx >100)”. The “Selectivity hEP2/hEP4” value in assay [1] is listed as “xxx (xxx >100)”.
Turning to `Cc1c(C(=O)NCC2COCCO2)ccc2nn(CC3CCN(C(=O)c4ccc(Oc5ccc(C(F)(F)F)cc5)cc4)CC3)cc12` (single isomer, unassigned) [Example 418, (R or S)—N-(1,4-dioxan-2-ylmethyl)-4-methyl-2-[(1-{4-[4-(trifluoromethyl)-phenoxy]benzoyl}piperidin-4-yl)methyl]-2H-indazole-5-carboxamide], the “Selectivity hEP2/hDP” value on human PGD receptor (hDP) is reported as “xxx (xxx >100)”. Further, in assay [1], the “Selectivity hEP2/hEP4” value is “xxx (xxx >100)”.
Turning to `Cc1c(C(=O)NCC2COCCO2)ccc2nn(CC3CCN(C(=O)c4ccc(Oc5ccc(C(F)(F)F)cc5)cc4)CC3)cc12` (single isomer, unassigned) [Example 419, (R or S)—N-(1,4-dioxan-2-ylmethyl)-4-methyl-2-[(1-{4-[4-(trifluoromethyl)-phenoxy]benzoyl}piperidin-4-yl)methyl]-2H-indazole-5-carboxamide], at human PGD receptor (hDP), the “Selectivity hEP2/hDP” value was “xxx (xxx >100)”. Further, the “Selectivity hEP2/hEP4” value in assay [1] is given as “xxx (xxx >100)”.
In the case of `Cc1ccc(-c2cc(C(F)(F)F)nn2-c2ccc(S(N)(=O)=O)cc2)cc1` [celecoxib, 4-[5-(4-methylphenyl)-3-(trifluoromethyl)-1H-pyrazol-1-yl]benzenesulphonamide], the cycle length with ovulation (daily administration of 400 mg over the entire cycle, increased from 27.2+/−2.4 days (Edelmann et al. 2010)) is 28.5 ± 2.5 days. Further, the “increase in ovulatory dysfunction” value with ovulation (daily oral administration of 400 mg, depending on time and duration of administration (Edelmann et al. 2013)) is 25-30%.
Turning to `CS(=O)(=O)c1ccc(C2=C(c3ccccc3)C(=O)OC2)cc1` [rofecoxib, 4-(4-mesylphenyl)-3-phenylfuran-2(5H)-one], the delay of ovulation result in the assay with ovulation (25 mg on 9 successive days, in 4 of 6 patients (Pall et al.)) is on record as “more than 48 hours”.
